Data from ChEMBL document CHEMBL1201862, “PubChem BioAssay data set” (2004).
Activity calls are given as the source filed them.

Assays:
H4 = test: Luminescence Cell-Based Dose Response HTS to Identify Activators of 5'UTR Stem-Loop Driven Prion Protein mRNA Translation in H4 Neuroglioblastoma Cells. [Related pubchem assays: 1829 (Project Summary), 1814 (Primary HTS)]; format: functional; settings: Homo sapiens
Escherichia coli = test: microbe, parasite or virus in culture
[1] = Luminescence Cell-Based Dose Response HTS to Identify Activators of Luciferase Translation or Activity in H4 […] Cells. [Related pubchem assays: 1829 (Project Summary), 1814 (Primary HTS)]; format: functional
[2] = Luminescence Cell-Based Dose Confirmation HTS to Identify Activators of 5'UTR Stem-Loop Driven Alpha-Synuclein mRNA Translation in H4 Neuroglioblastoma Cells. [Related pubchem assays: 1829 (Project Summary), 1814 (Primary HTS)]; format: functional
[3] = target: 26S proteasome non-ATPase regulatory subunit 14 (Homo sapiens, UniProt O00487); test: inhibition of proteasome subunit RPN11 – biochemical, fluorescence polarization, uHTS hits, confirmation (AID 602368); format: functional
Chain of 26S proteasome non-ATPase regulatory subunit 14 (O00487 whole entry): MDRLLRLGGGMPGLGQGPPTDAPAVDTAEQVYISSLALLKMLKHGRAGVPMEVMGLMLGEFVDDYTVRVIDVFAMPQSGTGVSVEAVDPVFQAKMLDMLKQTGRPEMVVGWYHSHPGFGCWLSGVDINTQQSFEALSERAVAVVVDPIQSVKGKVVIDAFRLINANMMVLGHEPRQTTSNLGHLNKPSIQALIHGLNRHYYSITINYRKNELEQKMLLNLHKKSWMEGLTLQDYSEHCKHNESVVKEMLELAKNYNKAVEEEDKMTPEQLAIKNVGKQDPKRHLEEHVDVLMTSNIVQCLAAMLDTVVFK

Prothrombin = Prothrombin (Bos taurus, UniProt P00735); test: thrombin inhibition, dose response, biochemical, fluorescence polarization, uHTS hits (AID 602369); format: functional
[4] = target: 72 kDa type IV collagenase (Homo sapiens, UniProt P08253); test: Dose Response validation of uHTS RPN11 inhibitor hits using a MMP-2 Fluorescence assay.; format: functional
Chain of 72 kDa type IV collagenase (P08253 whole entry): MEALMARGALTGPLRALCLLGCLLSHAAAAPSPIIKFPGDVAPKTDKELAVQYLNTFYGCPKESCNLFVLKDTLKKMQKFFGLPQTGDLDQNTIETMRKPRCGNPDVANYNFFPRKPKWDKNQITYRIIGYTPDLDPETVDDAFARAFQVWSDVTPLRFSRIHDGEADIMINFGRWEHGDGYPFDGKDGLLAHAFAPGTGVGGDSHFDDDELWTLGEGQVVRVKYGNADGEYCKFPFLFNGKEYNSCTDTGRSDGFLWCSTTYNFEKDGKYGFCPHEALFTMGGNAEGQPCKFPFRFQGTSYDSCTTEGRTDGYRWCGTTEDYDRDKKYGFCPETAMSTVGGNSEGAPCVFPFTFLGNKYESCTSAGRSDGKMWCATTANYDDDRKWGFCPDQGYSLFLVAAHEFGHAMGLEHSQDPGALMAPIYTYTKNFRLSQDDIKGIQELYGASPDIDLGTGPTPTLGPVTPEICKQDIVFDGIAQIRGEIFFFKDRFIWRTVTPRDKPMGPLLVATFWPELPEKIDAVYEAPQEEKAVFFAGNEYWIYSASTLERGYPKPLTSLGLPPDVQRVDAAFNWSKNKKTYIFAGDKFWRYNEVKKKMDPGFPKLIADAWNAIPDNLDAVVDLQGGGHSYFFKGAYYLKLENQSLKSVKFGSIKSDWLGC

HEK293 [5] = test: SAR Analysis of small molecule inhibitors of T-cell specific antigen receptor-induced NF-kB activation in a HEK-293T cell line using a luminescence assay - Set 2. [Related pubchem assays (depositor defined):AID435003, AID435012, AID489026]; format: functional, cell-based; settings: Homo sapiens
Jurkat = test: SAR Analysis of small molecule inhibitors of T-cell specific antigen receptor-induced NF-kB activation in a Jurkat cell line using a luminescence assay - Set 2. [Related pubchem assays (depositor defined):AID435003, AID435012, AID465]; format: functional, cell-based; settings: Homo sapiens
HEK293 [6] = test: cytotoxicity in HEK293T NF-kB-Luc cells, SAR follow-up, cytotoxicity control for NF-kB activator project, cell-based, resazurin fluorescence (AID 493251); format: functional; settings: Homo sapiens
[7] = target: DNA (cytosine-5)-methyltransferase 1 (Homo sapiens, UniProt P26358); test: DNMT1 methyltransferase inhibitors, confirmation, biochemical, fluorescent molecular beacon (AID 602386); format: functional
Chain of DNA (cytosine-5)-methyltransferase 1 (P26358 whole entry): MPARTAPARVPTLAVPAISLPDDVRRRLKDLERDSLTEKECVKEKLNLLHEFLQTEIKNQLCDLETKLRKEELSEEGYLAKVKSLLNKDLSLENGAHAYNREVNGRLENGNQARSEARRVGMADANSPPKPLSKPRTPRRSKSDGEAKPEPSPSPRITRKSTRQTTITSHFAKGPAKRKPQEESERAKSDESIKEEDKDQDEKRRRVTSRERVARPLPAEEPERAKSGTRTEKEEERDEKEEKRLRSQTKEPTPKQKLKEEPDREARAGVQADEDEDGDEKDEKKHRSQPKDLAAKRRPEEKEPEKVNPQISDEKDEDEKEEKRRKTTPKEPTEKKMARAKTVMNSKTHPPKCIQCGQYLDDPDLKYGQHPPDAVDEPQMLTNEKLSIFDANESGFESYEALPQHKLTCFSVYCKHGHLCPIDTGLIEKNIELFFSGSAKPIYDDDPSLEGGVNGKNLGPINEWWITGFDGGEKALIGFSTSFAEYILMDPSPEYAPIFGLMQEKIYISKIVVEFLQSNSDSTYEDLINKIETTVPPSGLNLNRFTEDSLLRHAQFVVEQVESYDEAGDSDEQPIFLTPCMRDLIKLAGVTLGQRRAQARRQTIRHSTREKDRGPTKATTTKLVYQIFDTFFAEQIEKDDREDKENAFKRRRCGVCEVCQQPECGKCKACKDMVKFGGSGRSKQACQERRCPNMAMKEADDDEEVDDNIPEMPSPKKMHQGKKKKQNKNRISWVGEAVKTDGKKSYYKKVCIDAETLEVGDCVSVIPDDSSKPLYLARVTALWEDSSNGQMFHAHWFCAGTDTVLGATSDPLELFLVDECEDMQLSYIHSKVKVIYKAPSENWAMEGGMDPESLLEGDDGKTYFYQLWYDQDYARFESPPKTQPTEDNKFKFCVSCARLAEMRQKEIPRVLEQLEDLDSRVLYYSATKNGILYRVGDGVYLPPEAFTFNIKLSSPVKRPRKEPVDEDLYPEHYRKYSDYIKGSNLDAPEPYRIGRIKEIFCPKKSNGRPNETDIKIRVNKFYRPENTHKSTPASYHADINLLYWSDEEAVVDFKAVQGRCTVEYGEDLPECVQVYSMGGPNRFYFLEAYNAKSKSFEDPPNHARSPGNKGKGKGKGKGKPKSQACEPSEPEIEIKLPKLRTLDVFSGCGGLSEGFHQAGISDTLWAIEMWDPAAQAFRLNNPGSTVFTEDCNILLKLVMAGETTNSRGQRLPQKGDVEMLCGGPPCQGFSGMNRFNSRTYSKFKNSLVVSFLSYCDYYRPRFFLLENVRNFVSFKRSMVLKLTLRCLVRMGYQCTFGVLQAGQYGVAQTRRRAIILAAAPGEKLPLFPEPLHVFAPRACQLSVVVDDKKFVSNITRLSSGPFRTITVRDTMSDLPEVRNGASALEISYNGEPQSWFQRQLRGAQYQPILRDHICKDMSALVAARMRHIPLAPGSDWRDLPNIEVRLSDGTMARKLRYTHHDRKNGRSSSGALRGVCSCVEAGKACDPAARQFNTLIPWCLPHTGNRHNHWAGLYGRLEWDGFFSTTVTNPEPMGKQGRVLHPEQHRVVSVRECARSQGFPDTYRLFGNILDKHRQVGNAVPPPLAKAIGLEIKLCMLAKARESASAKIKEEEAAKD

[8] = target: T1, Histone-lysine N-methyltransferase NSD2 (Homo sapiens, UniProt O96028); format: biochemical
T1 sequence (O96028 whole entry): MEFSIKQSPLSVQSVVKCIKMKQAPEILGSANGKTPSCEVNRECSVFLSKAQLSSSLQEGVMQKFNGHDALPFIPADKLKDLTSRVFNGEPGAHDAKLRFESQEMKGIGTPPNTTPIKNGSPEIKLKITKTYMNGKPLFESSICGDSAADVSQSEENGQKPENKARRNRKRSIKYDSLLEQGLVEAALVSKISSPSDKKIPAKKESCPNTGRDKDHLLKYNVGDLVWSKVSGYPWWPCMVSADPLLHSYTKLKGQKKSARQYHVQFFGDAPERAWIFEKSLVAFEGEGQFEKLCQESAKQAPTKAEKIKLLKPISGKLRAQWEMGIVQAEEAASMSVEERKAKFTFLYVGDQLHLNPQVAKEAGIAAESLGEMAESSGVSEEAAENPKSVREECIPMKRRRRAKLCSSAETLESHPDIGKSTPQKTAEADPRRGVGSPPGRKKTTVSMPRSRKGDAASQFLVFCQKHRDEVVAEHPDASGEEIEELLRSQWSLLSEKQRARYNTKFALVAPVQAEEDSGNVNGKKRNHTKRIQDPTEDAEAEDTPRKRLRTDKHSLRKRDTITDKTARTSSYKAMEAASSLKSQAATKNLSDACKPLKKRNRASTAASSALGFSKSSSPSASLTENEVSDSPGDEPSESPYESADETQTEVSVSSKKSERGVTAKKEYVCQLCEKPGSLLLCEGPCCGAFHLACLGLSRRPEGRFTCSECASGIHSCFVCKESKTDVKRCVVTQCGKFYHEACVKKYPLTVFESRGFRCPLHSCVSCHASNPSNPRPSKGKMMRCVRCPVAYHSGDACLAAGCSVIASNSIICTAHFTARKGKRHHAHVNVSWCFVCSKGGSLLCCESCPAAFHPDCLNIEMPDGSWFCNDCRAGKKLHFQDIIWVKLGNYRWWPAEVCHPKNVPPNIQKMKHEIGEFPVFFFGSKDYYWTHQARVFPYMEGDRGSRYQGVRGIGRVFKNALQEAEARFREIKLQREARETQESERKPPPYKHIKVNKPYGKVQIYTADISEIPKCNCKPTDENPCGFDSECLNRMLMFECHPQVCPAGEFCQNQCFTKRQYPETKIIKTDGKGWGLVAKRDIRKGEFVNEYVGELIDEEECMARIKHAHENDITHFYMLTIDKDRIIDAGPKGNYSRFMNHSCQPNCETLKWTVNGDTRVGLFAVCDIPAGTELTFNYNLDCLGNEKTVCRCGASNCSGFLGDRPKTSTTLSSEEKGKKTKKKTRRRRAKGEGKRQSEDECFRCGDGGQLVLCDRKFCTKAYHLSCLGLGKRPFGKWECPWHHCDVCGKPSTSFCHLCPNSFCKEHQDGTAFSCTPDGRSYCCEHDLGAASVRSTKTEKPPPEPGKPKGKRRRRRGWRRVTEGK

[9] = target: FAD-linked sulfhydryl oxidase ALR (Homo sapiens, UniProt P55789); test: inhibitors of human ALR sulfhydryl oxidase, dose response, biochemical, H2O2 detection, luminescence, cherry-pick (AID 493248)
Chain of FAD-linked sulfhydryl oxidase ALR (P55789 whole entry): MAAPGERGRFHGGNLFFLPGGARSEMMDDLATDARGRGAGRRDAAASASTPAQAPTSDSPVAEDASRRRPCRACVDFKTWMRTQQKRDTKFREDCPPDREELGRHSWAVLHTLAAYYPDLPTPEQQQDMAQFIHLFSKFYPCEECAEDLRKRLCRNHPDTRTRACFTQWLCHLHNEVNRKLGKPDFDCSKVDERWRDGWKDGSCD

[10] = inhibitors of intracellular T. cruzi replication, confirmation, NIH3T3 host cells, beta-gal luminescence (AID 2044); format: functional, cell-based;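 further: intracellular parasites grown in NIH/3T3 mouse fibroblasts as host cells; luminescent beta-galactosidase reporter signal from transgenic T. cruzi replicating inside host cells; inhibitors lower the luminescence signal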
HEK293 [11] = test: NOD1 signaling inhibitors, primary screen, cell-based, luminescence, uHTS (AID 1578); format: functional; settings: Homo sapiens
[12] = cytotoxicity toward NIH3T3 fibroblasts, dose response, counter-screen, cell-based, ATP luminescence, mouse fibroblasts (AID 2010); format: functional;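 further: cells exposed to compound for about 90 hours before reading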
HEK293 [13] = test: NOD2 signaling inhibitors in MDP-stimulated cells, cell-based, uHTS, luminescence (AID 2001); format: functional; settings: Homo sapiens
HEK293 [14] = test: cells; format: functional, cell-based; settings: Homo sapiens
HEK293 [15] = test: cells; format: functional, cell-based; settings: Homo sapiens; remark: listed apart in the source

CC1Cc2cc(C(=O)C3=C(O)C(=O)N(Cc4ccco4)C3c3cccs3)ccc2O1 (configuration not stated)
EC50 (H4): 35.2 µM (active)
AC50 (Escherichia coli): 18.3 µM (active)
EC50 [1]: 8.54 µM (active)
EC50 [2]: 11.9 µM (active)

COc1ccc(C2SCCN2S(=O)(=O)c2ccccc2)cc1 (configuration not stated)
AC50 (Escherichia coli): 95.3 µM (active)

COc1ccc(/C=C2\Oc3cc(OCC(=O)N4CCC[C@H]4C(=O)O)ccc3C2=O)c(OC)c1
IC50 [3]: 11 µM (active)
IC50 (Prothrombin): 14.3 µM (active)
IC50 [4]: > 100 µM (inactive)

CCOc1ccc(C(=O)Nc2ccc(NC(=O)c3cc4ccccc4o3)cc2)cc1[N+](=O)[O-]
IC50 (HEK293 [5]): > 80 µM (inactive)
IC50 (Jurkat): 48.8 µM (inactive)
IC50 (HEK293 [6]): > 80 µM (inactive)

COc1ccc(C(=O)Nc2ccc(NC(=O)c3cc4ccccc4o3)cc2)cc1OC
IC50 (HEK293 [5]): > 80 µM (inactive)
IC50 (Jurkat): > 79 µM (inactive)
IC50 (HEK293 [6]): > 80 µM (inactive)

Cc1cc(-c2nc3ncccc3o2)ccc1NC(=O)c1ccc([N+](=O)[O-])o1
IC50 (HEK293 [5]): 30 µM (inactive)
IC50 (Jurkat): 19.4 µM (active)
IC50 (HEK293 [6]): 32 µM (inactive)

ClN=C1C=CC=CC1=NCl
IC50 [7]: 7.2 µM (active)
AC50 [8]: 4.62 µM (active)

Cc1ccc2c(c1)N(C)/C(=C/c1cccc[n+]1C)S2
AC50 [9]: 63.1 µM (active)
EC50 (cells): 0.015 µM (active)
EC50 [10]: < 0.1 µM (active)
EC50 (HEK293 [11]): 13.3 µM (active)
EC50 [12]: > 60 µM (not active)
IC50 (HEK293 [13]): 17 µM (inactive)
IC50 (HEK293 [14]): 10.6 µM (active)
IC50 (HEK293 [15]): > 20 µM (inactive)
